Like-named read-outs stand apart in the source and are kept apart here.
What was measured:
[1] = biological target: T1, IN-CCD/LEDGF-IBD interaction (Human immunodeficiency virus type 1 group M subtype B, UniProt P12497, F1332K); assay: HTRF-based CCD-IBD interaction assay; format: binding, HIV-1; details: Table 1
T1 construct: cloning the integrase region (residues 50 to 202, encoding the catalytic core domain); made in house
Text: All HTRF® conjugated monoclonal antibodies were purchased from Cisbio Bioassays.

HIV-1 NL4-3 = assay: Antiviral assay in MT-4 cells, multiple-round infection, CellTiter-Glo; format: cell-based
Protocol: MT-4 cells growing exponentially at the density of 10^6/mL were infected with HIV-1 strain NL4-3 at a MOI (multiplicity of infection) of 0.001 for 2 h. The cells were washed with PBS and aliquoted, using 100 μL fresh complete RPMI, into 96-well white plates (Corning) in the presence of different concentrations of compounds.

HxB2 HIV-1 = assay: Antiviral assay in MT4 cells infected with HxB2; format: cell-based; details: Human immunodeficiency virus 1, HXB2, MT4; Table 1; read-out: HxB2 EC50 (MT4 assays)
[2] = tested on: VSV-G-pseudotyped NL4-3Δenv-luc; assay: microbe, parasite or virus in culture; format: cell-based, HIV-1
[3] = tested on: NL4-3 Protease L10R, M46I, L63P, V82T, I84V; assay: Antiviral assay on PI-resistant virus; format: cell-based, HIV-1; details: ratio EC50 resistant virus / wt virus
[4] = tested on: NL4-3 RT M41L, D67N, T69N, K70R, T215F, K219E; assay: Antiviral assay on NRTI-resistant virus; format: cell-based, HIV-1; details: ratio EC50 resistant virus / wt virus
NL4-3 RT K103N, Y181C = assay: Antiviral assay on NNRTI-resistant virus; format: cell-based, HIV-1; details: ratio EC50 resistant virus / wt virus
[5] = tested on: NL4-3 Integrase G140S, Q148H; assay: Antiviral assay on INSTI-resistant virus; format: cell-based, HIV-1; details: ratio EC50 resistant virus / wt virus
HIV-1 mutant IN A128T = assay: Antiretroviral activity on HIV-1 mutant IN A128T; format: cell-based
[6] = tested on: VSV-G-pseudotyped HIV-1 Δenv-Luc NL4-3; assay: Time-of-addition experiment, single-round infection of MT4 cells; format: cell-based; details: 25 μM (saturating)
[7] = tested on: HIV-1 proviral DNA (late reverse transcription product, integrated DNA); assay: Quantification of viral cDNA by real-time PCR in infected MT4 cells; format: cell-based
Protocol: Prior to infection, viral stocks were treated 1 h at 37°C with 100 U per mL of DNAseI (Roche Applied Science). MT4 cells (6x10^6) were infected with virus at MOI = 0.001. At 7 h, 24 h and 48 h post-infection, cells were harvested, washed twice in PBS and DNA was extracted using the QIAamp Blood DNA Minikit (Qiagen). Quantifications of viral DNA were performed by real-time PCR using the LightCycler 480 system (Roche Applied Science). Primers, probes, and PCR run conditions were described previously. The copy number of HIV-1 late reverse transcription product (LRT) was determined using standard curves obtained by amplification of cloned DNA containing the matched sequences. The copy number of integrated HIV-1 DNA was determined in reference to a standard curve generated by concomitant two-stage PCR amplification of a serial dilution of the standard HeLa HIVR7-Neo cell DNA [59]. Copy numbers of each viral form were normalized with the number of cells obtained by the quantification by PCR of the β-globin gene according to the manufacturer instructions (Roche Applied Science).

HIV-1 NL4-3 wt = format: cell-based
viral protease = viral protease (Human immunodeficiency virus type 1 group M subtype B, UniProt P12497); assay: Viral protease inhibition (unpublished data); format: biochemical, HIV-1
IN-CCD wt = IN-CCD wt (Human immunodeficiency virus type 1 group M subtype B, UniProt P12497, F1332K)

Question: Cc1nc2c(c(-c3ccc4c(c3)CCCO4)c1C(OC(C)(C)C)C(=O)O)CCCC2 (stereo not drawn) [Mut101, 2-(tert-butoxy)-2-[4-(3,4-dihydro-2H-1-benzopyran-6-yl)-2-methyl-5,6,7,8-tetrahydroquinolin-3-yl]acetic acid] was tested. Which IC50 [1] did it give?
Answer: 230 nM

Question: And the EC50 (HIV-1 NL4-3; Human immunodeficiency virus 1, NL43, MT4, Table 1, read-out: NL4-3 EC50 (MT4 assays))?
Answer: 540 nM

Question: What about the EC50 (HIV-1 NL4-3; Human immunodeficiency virus 1, NL43, MT4, Table 3, mean of two independent experiments, read-out: EC50 NL4-3 WT) of the same compound?
Answer: 470 nM

Question: And the EC50 (HIV-1 NL4-3; Human immunodeficiency virus 1, NL43, MT4 cells, mean of six independent experiments, read-out: NL4-3 EC50 Multiple-round)?
Answer: 490 ± 40 nM

Question: And the EC50 (HxB2 HIV-1)?
Answer: 92 nM

Question: What about the SR/MR ratio [2] of the same compound?
Answer: 18

Question: What about the EC50 ([2]; Human immunodeficiency virus 1, NL43, MT4, read-out: NL4-3 EC50 Single-round) of the same compound?
Answer: 9000 ± 1500 nM

Question: And the “EC50 fold change PI” value [3]?
Answer: 1

Question: What about the “EC50 fold change NRTIs” value [4] of the same compound?
Answer: 1

Question: And the “EC50 fold change NNRTIs” value (NL4-3 RT K103N, Y181C)?
Answer: 1

Question: What about the “EC50 fold change INSTIs” value [5] of the same compound?
Answer: 1

Question: And the “ARV activity on HIV-1 mutant IN A128T” value (HIV-1 mutant IN A128T)?
Answer: full ARV activity

Question: What about the “Behaviour in time-of-addition experiment” value [6] of the same compound?
Answer: behaved as an inhibitor of integration

Question: What about the “Integration of the proviral DNA (qPCR)” value [7] of the same compound?
Answer: inhibited the integration of the proviral DNA

Question: And the “Production of proviral DNA at reverse transcription (qPCR)” value [7]?
Answer: not the production of proviral DNA at reverse transcription

Question: What about the “Infectivity of NL4-3 wt virus produced in presence of compound” value (HIV-1 NL4-3 wt) of the same compound?
Answer: inactivated

Question: And the “Inhibition of viral protease” value (viral protease)?
Answer: does not inhibit viral protease

Question: And the Kd (IN-CCD wt)?
Answer: 120 nM

— article PMC4222603, “Dual inhibition of HIV-1 replication by integrase-LEDGF allosteric inhibitors is predominant at the post-integration stage” (Retrovirology, 2013)
